Results on 19 compounds are retold here after patent US5827866A, “Peptidyl heterocycles useful in the treatment of thrombin related disorders” (Ortho Pharmaceutical Corporation, priority 1995, dated 1998).

The conditions of data set [1]: rat, in vivo, iv.
Description: (§1) An ex vivo assay was conducted to determine the duration of action of the compounds of Formula I. For this i.v. assay male rats (Long Evans, 350-500 g) were implanted with a teflon cannulae via the femoral artery while under anesthesia (pentobarbital i.p., 35 mg/kg). […] The animals were allowed to recover for at least 24 h after the surgical procedure.
(§2) The test compound was dispersed in water and delivered to the animal (0.25 mL) via the femoral vein. […] A plasma sample was obtained by centrifuging the blood at 10,000 rpm for 5 min. This sample is analyzed for thrombin inhibition using the chromogenic assay, described below.
(§3) Datum was collected over a 30 min period and the initial rate of substrate hydrolysis (V0 (mOD/min)) was calculated with an analysis program (Softmax, Molecular Devices).
(§4) The time to half plasma elimination (t 1/2) was calculated from the slope of Vo vs. time, using the following equation:
Data set [2] can be described thus: Ex vivo i.v. assay for duration of action (time to half plasma elimination). The settings on record: rat, from slope of Vo vs. time of plasma thrombin inhibition.
Description: as §1, §2, §3, §4
Data set [3] can be described thus: Ex vivo bioavailability assay (i.v. and p.o.). The arrangement: species or system male rats. The settings on record: rat, p.o. vs i.v.; drug in plasma extrapolated from thrombin inhibition. The method, then:
Bioavailability was determined by an ex vivo assay which incorporated hydrolysis rates from drug administered both i.v. and p.o. In this assay male rats were prepared as described above with a teflon tube implanted in their femoral artery.
A standard curve was generated by adding of drug or vehicle (100 μL) to whole blood (900 μL) followed by incubating (5 min) and centrifuging to obtain plasma. The percentage of thrombin inhibition was calculated by comparing the V0 of the vehicle to that of the drug treated samples. Datum from several runs were normalized with a statistical package (SAS) to generate a standard curve.
The percentage of thrombin inhibition in the treated animals was calculated by comparing the V0 prior to treatment with the V0 obtained from samples collected after treatment. The percent inhibition was applied to the standard curve (generated above) using the statistical package (SAS) and the quantity of drug in the sample was extrapolated.
Bioavailability (Bioavail.) was calculated from the plots of the extrapolated drug in sample vs. time for both i.v. and p.o. administration using the following equation:
%Bioavail. =([…])×(area
under p.o. curve/area under curve i.v.)

Read-outs that look alike come from different tables or passages of the source.

`CN[C@@H](C(=O)N1CCC[C@H]1C(=O)N[C@@H](CCCNC(=N)N)C(=O)c1nc2ccccc2s1)C1CCCCC1` [Compound 37, N-METHYL-D-CYCLOHEXYLGLYCYL-N-[4-[(AMINOIMINOMETHYL)AMINO]-1S-[(BENXOTHIAZOL-2-YL)CARBONYL]BUTYL]-L-PROLINAMIDE]: in data set [1], the t1/2 came out at 42 min. As to `CNC(C(=O)N1CCC[C@H]1C(=O)N[C@@H](CCCNC(=N)N)C(=O)c1nc2ccccc2s1)c1ccccc1` (some centres unmarked) [Compound 34], in data set [2], the t1/2 is recorded as 26 min.

Regarding `CN[C@H](Cc1ccccc1)C(=O)N1CCC[C@H]1C(=O)N[C@@H](CCCNC(=N)N)C(=O)c1nc2ccc(O)cc2s1` [Compound 25], the t1/2 in data set [2] was found to be 14 min. Turning to `CC(=O)N[C@H](Cc1ccccc1)C(=O)N1CCC[C@H]1C(=O)N[C@@H](CCCNC(=N)N)C(=O)c1nc2ccccc2s1.O=C(O)C(F)(F)F` [Compound 35], the t1/2 in data set [1] was 11 min. In data set [1], `CN[C@H](Cc1ccccc1)C(=O)N1CCC[C@H]1C(=O)N[C@@H](CCCNC(=N)N)C(=O)c1nc2c(s1)CCCC2` [Compound 51] returned a t1/2 of 17 min. The compound `CNC(Cc1ccccc1)C(=O)N1CCCC1C(=O)NC(CCCNC(=N)N)C(=O)c1nccs1` (centres unmarked) [Compound 4] showed a t1/2 in data set [1] of 16 min.

Regarding `CN[C@H](Cc1ccccc1)C(=O)N1CCC[C@H]1C(=O)N[C@@H](CCCNC(=N)N)C(=O)c1nc2ccc(C(=O)OC)cc2s1` [Compound 12], in data set [1], the t1/2 came out at 43 min. Still for that read-out and setting: next, `CNC(C(=O)N1CCCC1C(=O)NC(CCCNC(=N)N)C(=O)c1nc2ccccc2s1)c1ccccc1` [Compound 33, N-METHYL-D-PHENYLGLYCYL-N-[4-[(AMINOIMINOMETHYL)AMINO]-1S-[(BENXOTHIAZOL-2- YL)CARBONYL]BUTYL]-L-PROLINAMIDE]: 18 min. In data set [1], `CN[C@H](Cc1ccc(F)cc1)C(=O)N1CCC[C@H]1C(=O)N[C@@H](CCCNC(=N)N)C(=O)c1nc2ccccc2s1` [Compound 32, N-METHYL-D-(4-FLUOROPHENYL)ALANYL-N-[4-[(AMINOIMINOMETHYL)AMINO)-1S-[(BENXOTHIAZOL-2-YL)CARBONYL]BUTYL]-L-PROLINAMIDE] yielded a t1/2 of 19 min. The same measure, in the same setting: next, `CN[C@H](Cc1c(F)c(F)c(F)c(F)c1F)C(=O)N1CCC[C@H]1C(=O)N[C@@H](CCCNC(=N)N)C(=O)c1nc2ccccc2s1` [Compound 30]: 6 min; `CN[C@H](Cc1ccccc1)C(=O)N1CCC[C@H]1C(=O)N[C@@H](CCCNC(=N)N)C(=O)c1nc2ccc(F)cc2s1` [Compound 17]: 8 min; `CNC(Cc1ccccc1)C(=O)N1CCCC1C(=O)NC(CCCNC(=N)N)C(=O)c1nc2ccccc2[nH]1` (centres unmarked) [Compound 21]: 5 min.

Compound `CN[C@H](CC1CCCCC1)C(=O)N1CCC[C@H]1C(=O)N[C@@H](CCCNC(=N)N)C(=O)c1nc2ccccc2s1` [Compound 29, N-METHYL-D-CYCLOHEXYLALANYL-N-[4-[(AMINOIMINOMETHYL)AMINO]-1S-[(BENXOTHIAZOL-2-YL)CARBONYL]BUTYL]-L-PROLINAMIDE] displayed a t1/2 in data set [1] of 14 min. In turn, `CCOC(=O)c1csc(C(=O)[C@H](CCCNC(=N)N)NC(=O)[C@@H]2CCCN2C(=O)[C@@H](Cc2ccccc2)NC)n1` [Compound 19] returned a t1/2 in data set [1] of 14 min.

In data set [1], `CN[C@H](Cc1ccccc1)C(=O)N1CCC[C@H]1C(=O)N[C@@H](CCCNC(=N)N)C(=O)c1nc2ccc3ccccc3c2s1` [Compound 52] had a t1/2 of 8 min. The same measure, in the same setting: next, `CN[C@H](Cc1ccccc1)C(=O)N1CCC[C@H]1C(=O)N[C@@H](CCCNC(=N)N)C(=O)c1nc(C(=O)O)cs1` [Compound 54]: 15 min; `CN[C@H](Cc1ccccc1)C(=O)N1CCC[C@H]1C(=O)N[C@@H](CCCNC(=N)N)C(=O)c1nc2ccc(CO)cc2s1` [Compound 15]: 16 min; `CN[C@H](Cc1ccccc1)C(=O)N1CCC[C@H]1C(=O)N[C@@H](CCCNC(=N)N)C(=O)c1nc2ccc(C(=O)O)cc2s1` [Compound 13]: 25 min. As to `CN[C@H](Cc1ccccc1)C(=O)N1CCC[C@H]1C(=O)N[C@@H](CCCNC(=N)N)C(=O)c1nc2ccccc2s1` [Compound 1, N-METHYL-D-PHENYLALANYL-N-[4-[(AMINOIMINOMETHYL)AMINO]-1S-[(BENXOTHIAZOL-2- YL)CARBONYL]BUTYL]-L-PROLINAMIDE], the “Bloavail,” value in data set [3] is on record as 1.2%. Further, the t1/2 in data set [1] was found to be 19 min.
